# Measurements from patent publication US20240317780A1, “RADIOPHARMACEUTICAL SOMATOSTATIN RECEPTOR LIGANDS AND PRECURSORS THEREOF” (Technische Universität München, priority 2021, published 2024).
# Where a SMILES comes first, the peptide text is derived from it. Bridges are numbered along the chain shown (N, C = ends). [ ]: non-standard residue; d: D form. The star is where a group is joined. ξ: configuration not given here. Benzoyl(4-SiFtBu2) = CC(C)(C)[Si](F)(c1ccc(C(=O)*)cc1)C(C)(C)C; X1 = CC(C)(C)[Si](F)(c1ccc(C[N+](C)(C)CC(=O)*)cc1)C(C)(C)C; DO3AM = NC(=O)CN1CCN(CC(N)=O)CCN(CC(=O)*)CCN(CC(N)=O)CC1; ξW = NC(Cc1c[nH]c2ccccc12)C(=O)O; dDap = NC[C@@H](N)C(=O)O; ξF = NC(Cc1ccccc1)C(=O)O; ξD = NC(CC(=O)O)C(=O)O; ξDap = NCC(N)C(=O)O; ξC = NC(CS)C(=O)O
# Columns and labels:
# [1] = Octanol-water distribution coefficient (logD pH 7.4) of the labeled tracer; assay type: physicochemical; conditions: n-octanol/PBS pH 7.4, room temperature
# Description: Approximately 1 MBq of the labeled tracer was dissolved in 1 mL of a 1:1 mixture (by volumes) of phosphate buffered saline (PBS, pH 7.4) and n-octanol in an Eppendorf tube. After vigorous mixing of the suspension for 3 minutes at room temperature, the vial was centrifuged at 15000 g for 5 minutes (Biofuge 15, Heraus Sepatech, Osterode, Germany) and 100 μL aliquots of both layers were measured in a gamma counter. The experiment was repeated at least six times.
# SST2 = target: T1, SST2 (Homo sapiens, UniProt P30874); test: Determination of IC50: competitive binding against [125I]TOC on SST2-transfected CHO cells; conditions: [125I]TOC reference radioligand, 60 min room temperature
# T1 construct: expressed in transfected cells; host or cells: CHO (Chinese hamster ovary) cells
# HSA = HSA (Homo sapiens, UniProt P02768); test: HSA binding by RIAC method (gel filtration, apparent molecular weight); assay type: in vitro ADME; conditions: HSA binding as apparent molecular weight, 700 μM HSA in PBS mobile phase
# Description: A gel filtration column Superdex 75 Increase 10/300 GL (GE Healthcare, Uppsala, Sweden) was beforehand calibrated following the producer's recommendations with a commercially available gel filtration calibration kit (GE Healthcare, Buckinghamshire, UK) comprising conalbumin (MW: 75 kDa), ovalbumin (44 kDa), carbonic anhydrase (29 kDa), ribonuclease A (13.7 kDa) and aprotinin (6.5 kDa) as reference proteins of known molecular weight. AMSEC experiments were conducted using a constant flow rate of 0.8 mL/min at rt. A solution of HSA in PBS at physiological concentration (700 μM) was used as the mobile phase. SST2 ligands were labelled as described with molar activities of 10-20 GBq/μmol. Probes of 1.0 MBq of the radioligand were injected directly from the labelling solution. HSA binding was expressed as an apparent molecular weight MW calculated from the retention time of the radioligand using the determined calibration curve.
# For evaluation, experimentally determined retention times tR are first converted into elution volumes Ve by multiplying with the flow rate and thereafter converted into partition coefficients Kav following the equation
# where V0 is the column void volume (8.027 mL) and Vc is the geometric column volume (24 mL). Using the equation given by the trend line plot of the column calibration
# the apparent molecular weight MW is calculated as […]
# HSA, sequence (P02768 25-609): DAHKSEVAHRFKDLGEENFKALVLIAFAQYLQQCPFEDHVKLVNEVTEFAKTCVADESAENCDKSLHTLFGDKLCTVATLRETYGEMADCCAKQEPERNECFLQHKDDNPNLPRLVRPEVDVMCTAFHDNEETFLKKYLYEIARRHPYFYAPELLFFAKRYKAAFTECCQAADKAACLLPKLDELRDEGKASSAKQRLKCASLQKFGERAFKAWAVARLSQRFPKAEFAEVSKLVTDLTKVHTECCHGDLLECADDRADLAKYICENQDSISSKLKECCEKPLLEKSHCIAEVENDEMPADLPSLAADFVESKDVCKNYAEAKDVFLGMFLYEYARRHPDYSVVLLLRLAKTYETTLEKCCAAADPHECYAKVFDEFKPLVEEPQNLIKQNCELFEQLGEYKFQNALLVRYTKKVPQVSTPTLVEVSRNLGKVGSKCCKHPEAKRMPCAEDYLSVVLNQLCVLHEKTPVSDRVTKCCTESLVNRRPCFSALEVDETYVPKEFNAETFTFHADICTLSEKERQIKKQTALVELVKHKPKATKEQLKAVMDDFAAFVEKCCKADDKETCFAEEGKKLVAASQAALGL
# T1 sequence (P30874 whole entry, species assumed): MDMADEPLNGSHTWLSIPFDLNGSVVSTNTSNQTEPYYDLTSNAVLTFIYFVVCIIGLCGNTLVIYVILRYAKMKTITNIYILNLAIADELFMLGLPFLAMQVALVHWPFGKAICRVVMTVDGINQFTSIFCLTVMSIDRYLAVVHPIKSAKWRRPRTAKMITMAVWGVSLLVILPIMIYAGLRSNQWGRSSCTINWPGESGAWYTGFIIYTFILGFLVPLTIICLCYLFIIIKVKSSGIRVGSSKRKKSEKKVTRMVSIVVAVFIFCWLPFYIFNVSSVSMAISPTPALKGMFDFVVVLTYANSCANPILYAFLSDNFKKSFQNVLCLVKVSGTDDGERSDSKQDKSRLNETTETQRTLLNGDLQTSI
SMILES,LogDpH=7.4 [1],IC50 (SST2) [nM],HSA (HSA) [kDa],LogDpH=7.4 ([1]; listed as 36)
"C[C@@H](O)[C@H](NC(=O)C1CSSCC(NC(=O)C(Cc2ccccc2)NC(=O)CNC(=O)CNC(=O)[C@@H](CC(=O)O)NC(=O)C(CC(=O)O)NC(=O)[C@@H](CNC(=O)c2ccc([Si](F)(C(C)(C)C)C(C)(C)C)cc2)NC(=O)CCC(C(=O)O)N2CCN(CC(=O)O)CCN(CC(=O)O)CCN(CC(=O)O)CC2)C(=O)N[C@@H](Cc2ccc(O)cc2)C(=O)NC(Cc2c[nH]c3ccccc23)C(=O)N[C@@H](CCCCN)C(=O)N[C@@H]([C@@H](C)O)C(=O)N1)C(=O)O (stereo partly shown) (natGa complex, metal not drawn) [[Ga]6]",−2.15 ± 0.09,149 ± 20.3,–,–
C[C@@H](O)[C@H](NC(=O)C1CSSCC(NC(=O)C(Cc2ccccc2)NC(=O)CNC(=O)CNC(=O)CNC(=O)C(CC(=O)O)NC(=O)[C@@H](CC(=O)O)NC(=O)C(CNC(=O)CN2CCN(CC(=O)O)CCN(CC(=O)O)CCN(CC(=O)O)CC2)NC(=O)[C@@H](CN)NC(=O)CNC(=O)CNC(=O)C[N+](C)(C)Cc2ccc([Si](F)(C(C)(C)C)C(C)(C)C)cc2)C(=O)N[C@@H](Cc2ccc(O)cc2)C(=O)NC(Cc2c[nH]c3ccccc23)C(=O)N[C@@H](CCCCN)C(=O)N[C@@H]([C@@H](C)O)C(=O)N1)C(=O)O (stereo partly shown) [[Ga]53],−1.96 ± 0.01,–,8.48,–
C[C@@H](O)[C@H](NC(=O)C1CSSCC(NC(=O)C(Cc2ccccc2)NC(=O)CNC(=O)CNC(=O)CNC(=O)C(CC(=O)O)NC(=O)[C@@H](CC(=O)O)NC(=O)C(CNC(=O)CN2CCN(CC(=O)O)CCN(CC(=O)O)CCN(CC(=O)O)CC2)NC(=O)[C@@H](CN)NC(=O)CNC(=O)C[N+](C)(C)Cc2ccc([Si](F)(C(C)(C)C)C(C)(C)C)cc2)C(=O)N[C@@H](Cc2ccc(O)cc2)C(=O)NC(Cc2c[nH]c3ccccc23)C(=O)N[C@@H](CCCCN)C(=O)N[C@@H]([C@@H](C)O)C(=O)N1)C(=O)O (stereo partly shown) [[Ga]52],−2.00 ± 0.02,–,7.82,–
C[C@@H](O)[C@H](NC(=O)C1CSSCC(NC(=O)C(Cc2ccccc2)NC(=O)CNC(=O)CNC(=O)CNC(=O)C(CC(=O)O)NC(=O)[C@@H](CC(=O)O)NC(=O)C(CNC(=O)CN2CCN(CC(=O)O)CCN(CC(=O)O)CCN(CC(=O)O)CC2)NC(=O)C[N+](C)(C)Cc2ccc([Si](F)(C(C)(C)C)C(C)(C)C)cc2)C(=O)N[C@@H](Cc2ccc(O)cc2)C(=O)NC(Cc2c[nH]c3ccccc23)C(=O)N[C@@H](CCCCN)C(=O)N[C@@H]([C@@H](C)O)C(=O)N1)C(=O)O (stereo partly shown) [[Lu]50],−1.79 ± 0.02,–,8.17,–
C[C@@H](O)[C@H](NC(=O)C1CSSCC(NC(=O)C(Cc2ccccc2)NC(=O)CNC(=O)CNC(=O)CNC(=O)C(CC(=O)O)NC(=O)[C@@H](CC(=O)O)NC(=O)C(CNC(=O)CN2CCN(CC(N)=O)CCN(CC(N)=O)CCN(CC(N)=O)CC2)NC(=O)C[N+](C)(C)Cc2ccc([Si](F)(C(C)(C)C)C(C)(C)C)cc2)C(=O)N[C@@H](Cc2ccc(O)cc2)C(=O)NC(Cc2c[nH]c3ccccc23)C(=O)N[C@@H](CCCCN)C(=O)N[C@@H]([C@@H](C)O)C(=O)N1)C(=O)O (stereo partly shown) [[Pb]54] (X1-[ξDap](DO3AM)[dD][ξD]GGG[ξF][ξC]Y[ξW]KT[ξC]T-OH; disulfide 8-13),−1.86 ± 0.04,4.24 ± 0.68,–,–
"C[C@@H](O)[C@H](NC(=O)C1CSSCC(NC(=O)C(Cc2ccccc2)NC(=O)CNC(=O)CNC(=O)CNC(=O)C(CC(=O)O)NC(=O)[C@@H](CC(=O)O)NC(=O)C(CNC(=O)CN2CCN(CC(=O)O)CCN(CC(=O)O)CCN(CC(=O)O)CC2)NC(=O)CNC(=O)C[N+](C)(C)Cc2ccc([Si](F)(C(C)(C)C)C(C)(C)C)cc2)C(=O)N[C@@H](Cc2ccc(O)cc2)C(=O)NC(Cc2c[nH]c3ccccc23)C(=O)N[C@@H](CCCCN)C(=O)N[C@@H]([C@@H](C)O)C(=O)N1)C(=O)O (stereo partly shown) (natGa complex, metal not drawn) [[Ga]60]",−2.24 ± 0.05,4.15 ± 0.79,–,–
"C[C@@H](O)[C@@H]1NC(=O)[C@H](CCCCN)NC(=O)C(Cc2ccc(NC(N)=O)cc2)NC(=O)[C@H](Cc2ccc(NC(=O)C3CC(=O)NC(=O)N3)cc2)NC(=O)[C@H](NC(=O)[C@H](Cc2ccc(Cl)cc2)NC(=O)CNC(=O)CNC(=O)CNC(=O)C(CC(=O)O)NC(=O)[C@@H](CC(N)=O)NC(=O)C(CNC(=O)CN2CCN(CC(=O)O)CCN(CC(=O)O)CCN(CC(=O)O)CC2)NC(=O)C[N+](C)(C)Cc2ccc([Si](F)(C(C)(C)C)C(C)(C)C)cc2)CSSCC(C(=O)NC(Cc2ccc(O)cc2)C(N)=O)NC1=O (stereo partly shown) (natGa complex, metal not drawn) [[Ga]59]",−2.14 ± 0.03,23.7 ± 1.5,–,–
"C[C@@H](O)[C@H](NC(=O)C1CSSCC(NC(=O)C(Cc2ccccc2)NC(=O)CNC(=O)CNC(=O)CNC(=O)C(CC(=O)O)NC(=O)[C@@H](CC(=O)O)NC(=O)C(CCCCN)NC(=O)[C@@H](CNC(=O)CN2CCN(CC(=O)O)CCN(CC(=O)O)CCN(CC(=O)O)CC2)NC(=O)C[N+](C)(C)Cc2ccc([Si](F)(C(C)(C)C)C(C)(C)C)cc2)C(=O)N[C@@H](Cc2ccc(O)cc2)C(=O)NC(Cc2c[nH]c3ccccc23)C(=O)N[C@@H](CCCCN)C(=O)N[C@@H]([C@@H](C)O)C(=O)N1)C(=O)O (stereo partly shown) (natGa complex, metal not drawn) [[Ga]57]",−2.25 ± 0.14,4.74 ± 0.22,–,–
"C[C@@H](O)[C@H](NC(=O)C1CSSCC(NC(=O)C(Cc2ccccc2)NC(=O)CNC(=O)CNC(=O)[C@@H](CC(=O)O)NC(=O)C(CC(=O)O)NC(=O)[C@@H](CNC(=O)c2ccc([Si](F)(C(C)(C)C)C(C)(C)C)cc2)NC(=O)CN2CCN(CC(=O)O)CCN(CC(=O)O)CCN(CC(=O)O)CC2)C(=O)N[C@@H](Cc2ccc(O)cc2)C(=O)NC(Cc2c[nH]c3ccccc23)C(=O)N[C@@H](CCCCN)C(=O)N[C@@H]([C@@H](C)O)C(=O)N1)C(=O)O (stereo partly shown) (natGa complex, metal not drawn) [[Ga]8]",−2.02 ± 0.04,58.5 ± 10.8,–,–
"CC(O)C(NC(=O)C1CSSCC(NC(=O)C(Cc2ccccc2)NC(=O)CNC(=O)CNC(=O)CNC(=O)C(CC(N)=O)NC(=O)[C@@H](CC(N)=O)NC(=O)C(CNC(=O)CN2CCN(CC(=O)O)CCN(CC(=O)O)CCN(CC(=O)O)CC2)NC(=O)C[N+](C)(C)Cc2ccc([Si](F)(C(C)(C)C)C(C)(C)C)cc2)C(=O)N[C@@H](Cc2ccc(O)cc2)C(=O)NC(Cc2c[nH]c3ccccc23)C(=O)N[C@@H](CCCCN)C(=O)N[C@@H]([C@@H](C)O)C(=O)N1)C(=O)O (stereo partly shown) (natGa complex, metal not drawn) [[Ga]56]",−1.51 ± 0.03,4 ± 0.34,–,–
"C[C@@H](O)[C@H](NC(=O)C1CSSCC(NC(=O)C(Cc2ccccc2)NC(=O)CNC(=O)CNC(=O)CNC(=O)C(CC(=O)O)NC(=O)[C@@H](CC(=O)O)NC(=O)C(CCCNC(N)=O)NC(=O)[C@@H](CNC(=O)CN2CCN(CC(=O)O)CCN(CC(=O)O)CCN(CC(=O)O)CC2)NC(=O)C[N+](C)(C)Cc2ccc([Si](F)(C(C)(C)C)C(C)(C)C)cc2)C(=O)N[C@@H](Cc2ccc(O)cc2)C(=O)NC(Cc2c[nH]c3ccccc23)C(=O)N[C@@H](CCCCN)C(=O)N[C@@H]([C@@H](C)O)C(=O)N1)C(=O)O (stereo partly shown) (natGa complex, metal not drawn) [[Ga]58]",−2.31 ± 0.04,4.41 ± 0.81,–,–
"C[C@@H](O)[C@H](NC(=O)C1CSSCC(NC(=O)C(Cc2ccccc2)NC(=O)CNC(=O)CNC(=O)[C@@H](CC(=O)O)NC(=O)C(CC(=O)O)NC(=O)[C@@H](CNC(=O)CN2CCN(CC(=O)O)CCN(CC(=O)O)CCN(CC(=O)O)CC2)NC(=O)c2ccc([Si](F)(C(C)(C)C)C(C)(C)C)cc2)C(=O)N[C@@H](Cc2ccc(O)cc2)C(=O)NC(Cc2c[nH]c3ccccc23)C(=O)N[C@@H](CCCCN)C(=O)N[C@@H]([C@@H](C)O)C(=O)N1)C(=O)O (stereo partly shown) (natGa complex, metal not drawn) [[Ga]9]",−2.02 ± 0.04,63.3 ± 1.75,–,–
C[C@@H](O)[C@H](NC(=O)C1CSSCC(NC(=O)C(Cc2ccccc2)NC(=O)CNC(=O)CNC(=O)[C@@H](CC(=O)O)NC(=O)C(CC(=O)O)NC(=O)[C@@H](CNC(=O)CN2CCN(CC(N)=O)CCN(CC(N)=O)CCN(CC(N)=O)CC2)NC(=O)C(CN)NC(=O)c2ccc([Si](F)(C(C)(C)C)C(C)(C)C)cc2)C(=O)N[C@@H](Cc2ccc(O)cc2)C(=O)NC(Cc2c[nH]c3ccccc23)C(=O)N[C@@H](CCCCN)C(=O)N[C@@H]([C@@H](C)O)C(=O)N1)C(=O)O (stereo partly shown) [Ligand 36] ({Benzoyl(4-SiFtBu2)}-[ξDap][dDap](DO3AM)[ξD][dD]GG[ξF][ξC]Y[ξW]KT[ξC]T-OH; disulfide 8-13),–,7.05 ± 1.61,–,−1.41 ± 0.07
"CC(O)C(NC(=O)C1CSSCC(NC(=O)C(Cc2ccccc2)NC(=O)CNC(=O)CNC(=O)CNC(=O)[C@@H](CCCN)NC(=O)[C@@H](CCCN)NC(=O)C(CNC(=O)CN2CCN(CC(=O)O)CCN(CC(=O)O)CCN(CC(=O)O)CC2)NC(=O)C[N+](C)(C)Cc2ccc([Si](F)(C(C)(C)C)C(C)(C)C)cc2)C(=O)N[C@@H](Cc2ccc(O)cc2)C(=O)NC(Cc2c[nH]c3ccccc23)C(=O)N[C@@H](CCCCN)C(=O)N[C@@H]([C@@H](C)O)C(=O)N1)C(=O)O (stereo partly shown) (natGa complex, metal not drawn) [[Ga]55]",−1.69 ± 0.04,4.1 ± 0.54,–,–
